Earlier results as cited in US20160008334A1, “Preparations for the Treatment of Sleep-Related Respiratory Disorders” (priority 2013, published 2016).

Conditions: compared with the barbiturate phenobarbital; one study (drugbank.ca DB00366)

CN(C)CCOC(C)(c1ccccc1)c1ccccn1 (stereo not shown) [doxylamine succinate]
effectiveness for use as a sedative: more effective than the barbiturate phenobarbital
